Assay results: US9630947B2, “Therapeutic compounds and related methods of use” (OTSUKA PHARMACEUTICAL CO., LTD., priority 2009, dated 2017)

The compounds below were run against T1, purified STEP46 enzyme (Homo sapiens, UniProt P54829) (assay: STEP46 biochemical assay (DiFMUP fluorescence phosphatase assay)). Settings: DiFMUP 10 μM, read-out: STEP IC50.
T1 sequence (P54829 1-565): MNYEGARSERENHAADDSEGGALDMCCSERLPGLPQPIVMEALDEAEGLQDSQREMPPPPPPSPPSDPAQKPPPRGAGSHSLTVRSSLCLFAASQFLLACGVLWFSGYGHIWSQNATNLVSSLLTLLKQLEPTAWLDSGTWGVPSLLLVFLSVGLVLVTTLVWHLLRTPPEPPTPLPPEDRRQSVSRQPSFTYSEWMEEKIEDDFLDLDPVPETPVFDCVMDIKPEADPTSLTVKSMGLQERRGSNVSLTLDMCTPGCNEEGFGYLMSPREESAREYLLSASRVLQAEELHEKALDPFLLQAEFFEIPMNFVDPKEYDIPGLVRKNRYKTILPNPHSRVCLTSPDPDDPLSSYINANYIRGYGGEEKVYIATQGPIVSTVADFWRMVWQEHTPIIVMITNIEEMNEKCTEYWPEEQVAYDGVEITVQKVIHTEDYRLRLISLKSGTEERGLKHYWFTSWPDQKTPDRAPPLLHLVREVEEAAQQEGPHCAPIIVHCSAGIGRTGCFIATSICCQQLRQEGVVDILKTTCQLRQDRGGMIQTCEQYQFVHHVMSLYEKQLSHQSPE
In short: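 Compounds preincubated 30 min at room temperature with purified STEP46 (1 ng/well) in 50 mM Hepes, 1 mM DTT, 0.02% Brij35, then 10 μM DiFMUP (final) added for 90 min at 27 °C; 2% DMSO, fluorescence at 360/460 nm. IC50 from four-parameter fit of % inhibition; activators reported as negative % inhibition at 25, 50 and 100 uM.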

| IC50 [nM] | SMILES |
| --- | --- |
| < 1000 | COc1ccc2nc(-c3cnccn3)nc(Nc3cc(Cl)cc(Cl)c3)c2c1 [Compound 1194] |
| > 10000 | CNc1nc(-c2cccnc2)nc2cc(C)c(-c3ccc(F)cc3F)cc12 [Compound 1415] |
| 1000 to 10000 | FC(F)Oc1cccc(Nc2nc(-c3cnccn3)nc3ccccc23)c1 [Compound 1214] |
| 1000 to 10000 | CNc1nc(-c2cccnc2)nc2cc(-c3ccc(F)cc3F)ccc12 [Compound 1372] |
| 1000 to 10000 | CNc1nc(-c2cccnc2)nc2cc(-c3ccc(OC)cc3)c(C)cc12 [Compound 1413] |
| < 1000 | COc1ccc2nc(-c3ccnnc3)nc(Nc3cccc(C#N)c3)c2c1 [Compound 1187] |
| 1000 to 10000 | Fc1ccc(Nc2nc(-c3cncnc3)nc3ccccc23)cc1Cl [Compound 1230] |
| > 10000 | CNc1nc(-c2cccnc2)nc2cc(-c3ccccc3F)c(C)cc12 [Compound 1403] |
| 1000 to 10000 | CN(C)c1nc(-c2cccnc2)nc2ccc(-c3cccc([N+](=O)[O-])c3)cc12 [Compound 1335] |
| > 10000 | CNc1nc(-c2cccnc2)nc2c(C)cc(-c3ccccc3OC)cc12 [Compound 1283] |
| > 10000 | N#Cc1cccc(Nc2nc(-c3cnccn3)nc3ccccc23)c1 [Compound 1221] |
| > 10000 | CNc1nc(-c2cccnc2)nc2cc(-c3cccc(C)c3)ccc12 [Compound 1361] |
| 1000 to 10000 | COc1ccc2nc(-c3ccnnc3)nc(Nc3ccc(F)c(F)c3)c2c1 [Compound 1186] |
| 1000 to 10000 | CNc1nc(-c2cccnc2)nc2c(C)c(-c3ccccc3F)ccc12 [Compound 1446] |
| 1000 to 10000 | Cc1cccc2c(Nc3cc(Cl)cc(Cl)c3)nc(-c3cnccn3)nc12 [Compound 1180] |
| 1000 to 10000 | CNc1nc(-c2cccnc2)nc2ccc(-c3cccc4occc34)cc12 [Compound 1370] |
| > 10000 | CNc1nc(-c2cccnc2)nc2cc(-c3ccccc3OC)c(C)cc12 [Compound 1411] |
| 1000 to 10000 | CNc1nc(-c2cccnc2)nc2cc(-c3ccccc3F)ccc12 [Compound 1358] |

| IC50 [nM] | SMILES |
| --- | --- |
| > 10000 | CNc1nc(-c2cccnc2)nc2cc(-c3ccc(F)cc3)c(C)cc12 [Compound 1404] |
| 1000 to 10000 | CN(C)c1nc(-c2cccnc2)nc2ccc(-c3ccc(F)cc3F)cc12 [Compound 1381] |
| 1000 to 10000 | Fc1ccc(Nc2nc(-c3cnccn3)nc3ccccc23)cc1Cl [Compound 1219] |
| 1000 to 10000 | FC(F)Oc1cc(Cl)cc(Nc2nc(-c3cccnc3)nc3ccccc23)c1 [Compound 1213] |
| 1000 to 10000 | Cc1cc(Cl)cc2c(Nc3cccc(C#N)c3)nc(-c3cnccn3)nc12 [Compound 1228] |
| 1000 to 10000 | CNc1nc(-c2cccnc2)nc2c(C)cc(-c3ccc(OC)cc3)cc12 [Compound 1282] |
| 1000 to 10000 | CNc1nc(-c2cccnc2)nc2ccc(-c3cc(OC)cc(OC)c3)cc12 [Compound 1357] |
| 1000 to 10000 | Clc1cc(Cl)cc(Nc2nc(-c3cnccn3)nc3ccc(Cl)cc23)c1 [Compound 1161] |
| < 1000 | Fc1ccc(Nc2nc(-c3ccnnc3)nc3ccccc23)cc1Cl [Compound 1216] |
| 1000 to 10000 | Cc1cccc2c(Nc3ccc(Cl)c(Cl)c3)nc(-c3cnccn3)nc12 [Compound 1178] |
| 1000 to 10000 | Cc1cccc2c(Nc3ccc(F)c(Cl)c3)nc(-c3cnccn3)nc12 [Compound 1176] |
| 1000 to 10000 | Fc1ccc(Nc2nc(-c3ccnnc3)nc3cc(Cl)ccc23)cc1Cl [Compound 1201] |
| > 10000 | FC(F)Oc1cccc(Nc2nc(-c3cncnc3)nc3ccccc23)c1 [Compound 1211] |
| 1000 to 10000 | CNc1nc(-c2cccnc2)nc2c(C)c(-c3cc(F)cc(F)c3)ccc12 [Compound 1448] |
| 1000 to 10000 | CNc1nc(-c2cccnc2)nc2cc(C)c(-c3ccc(OC)cc3)cc12 [Compound 1420] |
| 1000 to 10000 | CNc1nc(-c2cccnc2)nc2ccc(-c3ccc4c(cnn4C)c3)cc12 [Compound 1366] |
| 1000 to 10000 | Cc1cccc2c(Nc3cccc(OC(F)F)c3)nc(-c3ccnnc3)nc12 [Compound 1168] |
| 1000 to 10000 | COc1ccc2nc(-c3cnccn3)nc(Nc3ccc(F)c(F)c3)c2c1 [Compound 1192] |

Continued, compound first:

| SMILES | IC50 [nM] |
| --- | --- |
| Cc1cccc(-c2ccc3nc(-c4cccnc4)nc(Nc4ccc(F)c(Cl)c4)c3c2)c1 [Compound 632] | < 1000 |
| Fc1ccc(Nc2nc(-c3cccnc3)nc3ccc(-c4ccccc4)cc23)cc1Cl [Compound 631] | 1000 to 10000 |
| COc1cccc(-c2ccc3nc(-c4cccnc4)nc(Oc4ccc(Cl)c(Cl)c4)c3c2)c1 [Compound 391] | 1000 to 10000 |
| COc1ccc2nc(-c3cccnc3)nc(Nc3ccccc3C(=O)NCc3ccc4c(c3)CCC4)c2c1 [Compound 900] | 1000 to 10000 |
| Fc1ccc(-c2ccc3nc(-c4cccnc4)nc(Nc4ccc(F)c(Cl)c4)c3c2)cc1F [Compound 672] | 1000 to 10000 |
| N#Cc1cccc(Nc2nc(-c3cccnc3)nc3cc(-c4ccc(F)cc4)ccc23)c1 [Compound 709] | < 1000 |
| COc1ccc(-c2csc(Nc3nc(-c4cccnc4)nc4ccc(OC)cc34)n2)cc1 [Compound 435] | < 1000 |
| COc1ccc2nc(-c3cccnc3)nc(Nc3ccc4c(C)cc(=O)[nH]c4c3)c2c1 [Compound 333] | < 1000 |
| COc1ccc2nc(-c3cccnc3)nc(Nc3ccc4ccn(C)c4c3)c2c1 [Compound 303] | 1000 to 10000 |
| Fc1ccc(Nc2nc(-c3cccnc3)nc3cc(-c4cccnc4)ccc23)cc1Cl [Compound 677] | > 10000 |
| N#Cc1cccc(Nc2nc(-c3cnccn3)nc3cc(Cl)ccc23)c1 [Compound 1144] | 1000 to 10000 |
| CCOc1ccc2nc(-c3cccnc3)nc(Nc3nc(-c4cccc(F)c4F)cs3)c2c1 [Compound 470] | 1000 to 10000 |
| COc1ccc2nc(-c3cccnc3)nc(Nc3nc(-c4ccc(Cl)cc4)cs3)c2c1 [Compound 399] | < 1000 |
| CCOC(=O)c1csc(Nc2nc(-c3cccnc3)nc3ccc(OC)cc23)n1 [Compound 474] | 1000 to 10000 |
| O=[N+]([O-])c1cccc(-c2ccc3nc(-c4cccnc4)nc(Nc4ccc(F)c(Cl)c4)c3c2)c1 [Compound 635] | < 1000 |
| COc1ccc2nc(-c3cccnc3)nc(Oc3ccc(Cl)c(Cl)c3)c2c1 [Compound 344] | 1000 to 10000 |
| COc1ccc2nc(-c3cccnc3)nc(Nc3ccc4ncoc4c3)c2c1 [Compound 341] | 1000 to 10000 |
| CCOc1ccc2nc(-c3cccnc3)nc(Nc3ccc4nonc4c3)c2c1 [Compound 334] | 1000 to 10000 |
| COc1ccc2nc(-c3cccnc3)nc(Nc3ccc(F)cc3Cl)c2c1 [Compound 933] | 1000 to 10000 |
| COc1cccc(-c2ccc3c(Nc4ccc(F)c(Cl)c4)nc(-c4cccnc4)nc3c2)c1 [Compound 681] | 1000 to 10000 |

| SMILES | IC50 [nM] |
| --- | --- |
| CCOc1ccc2nc(-c3cccnc3)nc(Nc3ccccc3C(N)=O)c2c1 [Compound 73] | 1000 to 10000 |
| COc1ccc2nc(-c3cccnc3)nc(Nc3nc(-c4cccc(OC(F)(F)F)c4)cs3)c2c1 [Compound 455] | 1000 to 10000 |
| COc1ccc2nc(-c3cccnc3)nc(Nc3nc(-c4cc(F)cc(F)c4)cs3)c2c1 [Compound 457] | 1000 to 10000 |
| Fc1ccc(Nc2nc(-c3cccnc3)nc3ccc(-c4cccc(Cl)c4)cc23)cc1Cl [Compound 629] | 1000 to 10000 |
| NC(=O)c1ccccc1Nc1nc(-c2cccnc2)nc2cc(Br)ccc12 [Compound 699] | < 1000 |
| COc1ccc2nc(-c3cccnc3)nc(Nc3ccccc3C(=O)NC(C)c3ccc(C(F)(F)F)cc3)c2c1 (stereo not drawn) [Compound 889] | 1000 to 10000 |
| CN(C)c1cccc(-c2ccc3nc(-c4cccnc4)nc(Nc4ccc(F)c(Cl)c4)c3c2)c1 [Compound 643] | < 1000 |
| CCOc1ccc(-c2ccc3nc(-c4cccnc4)nc(Nc4ccc(F)c(Cl)c4)c3c2)cn1 [Compound 661] | < 1000 |
| COc1ccc2nc(-c3cccnc3)nc(Nc3ccc4scnc4c3)c2c1 [Compound 320] | 1000 to 10000 |
| COc1cc(-c2ccc3nc(-c4cccnc4)nc(Nc4ccc(F)c(Cl)c4)c3c2)cc(C(F)(F)F)c1 [Compound 664] | 1000 to 10000 |
| NC(=O)c1ccc(-c2ccc3nc(-c4cccnc4)nc(Nc4ccc(F)c(Cl)c4)c3c2)cc1 [Compound 656] | < 1000 |
| CN(C)c1ccc2nc(-c3ccnnc3)nc(Nc3ccccc3C(N)=O)c2c1 [Compound 1151] | 1000 to 10000 |
| COc1cccc(-c2csc(Nc3nc(-c4cccnc4)nc4ccc(OC)cc34)n2)c1 [Compound 434] | 1000 to 10000 |
| COc1ccc2nc(-c3cccnc3)nc(Nc3cccc(-c4ccc(Cl)cc4)c3)c2c1 [Compound 427] | 1000 to 10000 |
| COc1cncc(-c2ccc3nc(-c4cccnc4)nc(Nc4ccc5[nH]c(=O)sc5c4)c3c2)c1 [Compound 329] | < 1000 |
| COc1ccc2nc(-c3cccnc3)nc(Nc3ccc4c(c3)COC4)c2c1 [Compound 962] | < 1000 |
| CCNC(=O)c1sc(Nc2nc(-c3cccnc3)nc3ccc(OC)cc23)nc1-c1ccccc1 [Compound 1126] | 1000 to 10000 |
| COc1ccc2nc(-c3cccnc3)nc(Nc3ccc4c(c3)OCCO4)c2c1 [Compound 297] | > 10000 |
| COc1ccc2nc(-c3cccnc3)nc(Nc3nnc(-c4ccc(Cl)cc4)s3)c2c1 [Compound 412] | < 1000 |
